Experimental findings from patent publication US12297234B2, “Genetically encoded system for constructing and detecting biologically active agents” (The Regents of the University of Colorado, priority 2018, dated 2025) are described below.

Experiment [1] relates to PTP1B. The experiment in a line: Mutational analysis of the inhibitor binding site (fractional change in inhibition). It is filed as biochemical, H. sapiens. The settings on record: FIG. 24C. The source says:
FIG. 24B illustrates exemplary disruptive mutations introduced at each site. Mutations were designed to alter the size and/or polarity of targeted residues. […] Error bars denote SE (propagated from n≥9 independent measurements of each V in Eq. 1).

For experiment [2], the target named is T1, PTP1B (Homo sapiens, UniProt P18031).
T1 construct: made in house; host or cells: E. coli BL21 (B121 [sic])
T1 sequence (P18031 1-435): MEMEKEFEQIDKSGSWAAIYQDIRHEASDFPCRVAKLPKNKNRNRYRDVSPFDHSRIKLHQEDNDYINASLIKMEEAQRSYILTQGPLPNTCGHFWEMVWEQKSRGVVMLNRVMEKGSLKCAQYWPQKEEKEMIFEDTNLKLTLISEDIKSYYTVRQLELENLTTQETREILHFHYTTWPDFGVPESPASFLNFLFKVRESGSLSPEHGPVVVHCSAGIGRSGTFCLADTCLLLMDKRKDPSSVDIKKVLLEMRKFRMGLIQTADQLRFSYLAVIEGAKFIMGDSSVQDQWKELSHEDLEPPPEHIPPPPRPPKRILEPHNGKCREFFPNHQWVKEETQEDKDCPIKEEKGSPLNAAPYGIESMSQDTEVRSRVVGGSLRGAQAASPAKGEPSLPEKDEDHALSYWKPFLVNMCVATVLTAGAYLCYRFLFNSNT
The experiment in a line: Binding-induced quenching of tryptophan fluorescence of PTP1B. Set-up: species or system H. sapiens. Particulars: FIG. 17C. The source says: FIG. 17A N-HSQC spectra of PTP1B (red) and PTP1B bound to abietic acid (blue). Inset: Crystal structure of PTP1B. […] Error bars represent standard error (n>5).
Binding-induced changes in the tryptophan fluorescence of PTP1B. A screen in which inhibition of PTP1B is linked to changes in tryptophan fluorescence (FIG. 21D) will enable rapid screening of moderately sized libraries (10^3-10^4)^27 in microtiter plates. Our use of binding-induced changes in tryptophan fluorescence is described in 5.6.

The target of experiment [3] is T1, PTP1B. As to the kind of experiment: PTP1B-catalyzed hydrolysis of pNPP in the presence of inhibitor. It is filed as biochemical, H. sapiens. The source says:
FIG. 14A illustrates Abietic acid. […] FIG. 14C illustrates Abietic acid (green) docked in the allosteric site of PTP1B. […] Inset highlights active site in black.
FIG. 16A-B illustrates exemplary terpenoids showing differences in stereochemistry, shape, size, and chemical functionality. FIG. 16A illustrates clockwise from abietic acid (1), neoabietic acid (2), levopimaric acid (3), dihydroabietic acid (4). […] No inhibitor. Error bars=standard error (n>5).
Lines show a fit to a model for mixed inhibition. FIG. 22D an exemplary illustration of this model, where the inhibitor (I) binds to the enzyme (E) and enzyme-substrate complex (ES) with different affinities.
Improved inhibitors. We assessed the ability of minor structural perturbations of abietadiene derivatives to yield improved inhibitors by comparing four structurally related (and commercially available) molecules (FIG. 16): abietic, neoabietic, levopimaric, and dihydroabietic acid.
Statistical Analysis of Kinetic Models. We evaluated four kinetic models of inhibition as described previously (19). In brief, we used an F-test to compare a two-parameter mixed model to several single-parameter models, and we used Akaike's Information Criterion (AIC, or Ai) to compare the single-parameter models to one another. […] Exemplary Estimation of IC50. […]

SMILES strings stand for the structures.

Regarding `CCc1oc2cc(S(=O)(=O)Nc3ccc(S(=O)(=O)Nc4nccs4)cc3)ccc2c1C(=O)c1cc(Br)c(O)c(Br)c1` [BBR, 3-(3,5-Dibromo-4-hydroxy-benzoyl)-2-ethyl-benzofuran-6-sulfonicacid-(4-(thiazol-2-ylsulfamyl)-phenyl)-amide], the “effect of five mutations distributed across PTP1B on inhibition” value (from here on “effect … on inhibition”) with PTP1B [1] is recorded as “negligible effect”. Consider `Cl.O=C(O)C(=O)Nc1sc2c(c1C(=O)O)CCNC2` [TCS401, 2-[(Carbox-ycarbonyl)amino]-4,5,6,7-tetrahydro-thieno[2,3-c]pyridine-3-carboxylic acid hydrochloride], for which the “effect … on inhibition” value in the experiment with PTP1B [1] is on record as “reduced inhibition”.

Regarding `CC(C)C1=CC2=CC[C@@H]3[C@](C)(CCC[C@@]3(C)C(=O)O)[C@H]2CC1` [abietic acid], the “concentration detected by change in tryptophan fluorescence of PTP1B” value at PTP1B [2] turned out to be 50 µM. Besides, the Ki on PTP1B [3] (commercially available abietane-type acids, FIG. 16, read-out: K, (inhibition of PTP1B)) is 250 µM. Besides, the “effect … on inhibition” value in the experiment with PTP1B [1] is on record as “reduced inhibition”. Regarding `CC(C)C1C=C2CCC3C(C)(C(=O)O)CCCC3(C)C2CC1` (stereo not drawn) [dihydroabietic acid], the “inhibition relative to abietic acid” value on PTP1B [3] is given as “ten times more inhibitory than abietic acid”.
